Experimental data as given in patent US20060241172A1, “Benzodioxane and benzodioxolane derivatives and uses thereof” (Wyeth, priority 2005, published 2006).
Counter-ions that a name gives are not always drawn.

melting point [°C] | Structure (SMILES)
158 to 161 | C[C@]1(CN)COc2cccc(-c3ccsc3)c2O1 (as salt: fumarate) [Compound I-53, {[(2S)-2-Methyl-8-thien-3-yl-2,3-dihydro-1,4-benzodioxin-2-yl]methyl}amine]
178 to 180 | NCC1Oc2cc(F)cc(-c3ccccc3C(F)(F)F)c2O1 (stereo not shown) (as salt: hydrochloride) [Compound I-82, 1-[4-(2-Trifluoromethyl-phenyl)-6-fluoro-1,3-benzodioxol-2-yl]methanamine]
183 to 184 | NCC1COc2cccc(-c3ccc(F)cc3F)c2O1 (stereo not shown) (as salt: fumarate) [Compound I-14, {[8-(2,4-Difluorophenyl)-2,3-dihydro-1,4-benzodioxin-2-yl]methyl}amine]
132 to 134 | CNCC1Oc2cc(F)cc(-c3ccccc3Cl)c2O1 (stereo not shown) (as salt: hydrochloride) [Compound I-87, 1-[4-(2-Chlorophenyl)-6-fluoro-1,3-benzodioxol-2-yl]-N-methylmethanamine]
192 to 194 | NCC1Oc2cc(F)cc(-c3ccccc3Cl)c2O1 (stereo not shown) (as salt: hydrochloride) [Compound I-84, 1-[4-(2-Chloro-phenyl)-6-fluoro-1,3-benzodioxol-2-yl]methanamine]
210 to 211 | NCC1COc2cccc(-c3ccccc3Cl)c2O1 (stereo not shown) (as salt: fumarate) [Compound I-1, {[8-(2-Chlorophenyl)-2,3-dihydro-1,4-benzodioxin-2-yl]methyl}amine]
177 to 178 | CNCC1COc2cccc(-c3ccccc3C)c2O1 (stereo not shown) (as salt: fumarate) [Compound I-17, N-Methyl-N-{[8-(2-methylphenyl)-2,3-dihydro-1,4-benzodioxin-2-yl]methyl}amine]
188 to 190 | NCC1COc2cccc(-c3ccccc3F)c2O1 (stereo not shown) (as salt: fumarate) [Compound I-2, {[8-(2-Fluorophenyl)-2,3-dihydro-1,4-benzodioxin-2-yl]methyl}amine]
> 250 | NCC1Oc2cc(Cl)cc(-c3ccccc3F)c2O1 (stereo not shown) (as salt: salt) [Compound I-93, [6-Chloro-4-(2-fluoro-phenyl)-benzo[1,3]dioxol-2-yl]-methylamine]
222 to 223 | CC(C)NCC1COc2cccc(-c3ccc(Cl)cc3Cl)c2O1 (stereo not shown) (as salt: fumarate) [Compound I-37, N-{[8-(2,4-Dichlorophenyl)-2,3-dihydro-1,4-benzodioxin-2-yl]methyl}propan-2-amine]
196 to 198 | NCC1Oc2cc(Cl)cc(-c3ccccc3-c3ccccc3)c2O1 (stereo not shown) (as salt: hydrochloride) [Compound I-101, [6-Chloro-4-biphenyl-benzo[1,3]dioxol-2-yl]-methylamine]
176 to 178 | NC[C@H]1COc2cc(Cl)cc(-c3ccccc3F)c2O1 (as salt: hydrochloride) [Compound I-59, (2S)-[6-Chloro-8-(2-fluoro-phenyl)-2,3-dihydro-benzo[1,4]dioxin-2-yl]-methylamine]
206 to 207 | NCC1COc2cccc(-c3cc(Cl)ccc3Cl)c2O1 (stereo not shown) (as salt: fumarate) [Compound I-8, {[8-(2,5-Dichlorophenyl)-2,3-dihydro-1,4-benzodioxin-2-yl]methyl}amine]
105 | NC[C@H]1COc2ccc(Cl)c(-c3ccccc3Cl)c2O1 (as salt: hydrochloride) [Compound I-70, (2S)-[7-Chloro-8-(2-chloro-phenyl)-2,3-dihydro-benzo[1,4]dioxin-2-yl]-methylamine]
204 to 205 | NCC1Oc2cc(F)cc(-c3cc(Cl)ccc3Cl)c2O1 (stereo not shown) (as salt: hydrochloride) [Compound I-81, 1-[4-(2,5-Dichloro-phenyl)-6-fluoro-1,3-benzodioxol-2-yl]methanamine]
201 to 202 | Cc1ccccc1-c1cccc2c1OC(CN)CO2 (stereo not shown) (as salt: fumarate) [Compound I-3, {[8-(2-Methylphenyl)-2,3-dihydro-1,4-benzodioxin-2-yl]methyl}amine]
211 to 212 | CN(C)CC1Oc2cc(F)cc(-c3ccccc3Cl)c2O1 (stereo not shown) (as salt: hydrochloride) [Compound I-89, 1-[4-(2-chlorophenyl)-6-fluoro-1,3-benzodioxol-2-yl]-N,N-dimethylmethanamine]
191 to 192 | CNCC1COc2cccc(-c3ccccc3F)c2O1 (stereo not shown) (as salt: fumarate) [Compound I-18, {[8-(2-Fluorophenyl)-2,3-dihydro-1,4-benzodioxin-2-yl]methyl}methylamine]
165 to 167 | NC[C@H]1COc2cccc(-c3c(Cl)cccc3Cl)c2O1 (as salt: salt) [Compound I-46, {[(2S)-8-(2,6-Dichlorophenyl)-2,3-dihydro-1,4-benzodioxin-2-yl]methyl}amine]
181 to 182 | Clc1ccc(-c2cccc3c2OC(CNC2CC2)CO3)c(Cl)c1 (stereo not shown) (as salt: fumarate) [Compound I-44, N-{[8-(2,4-Dichlorophenyl)-2,3-dihydro-1,4-benzodioxin-2-yl]methyl}cyclopropanamine]

melting point [°C] | Structure (SMILES)
189 to 190 | NCC1COc2cccc(-c3cc(F)ccc3F)c2O1 (stereo not shown) (as salt: fumarate) [Compound I-15, {[8-(2,5-Difluorophenyl)-2,3-dihydro-1,4-benzodioxin-2-yl]methyl}amine]
130 to 133 | C[C@]1(CN)COc2cccc(-c3ccccc3)c2O1 (as salt: fumarate) [Compound I-48, {[(2S)-2-Methyl-8-phenyl-2,3-dihydro-1,4-benzodioxin-2-yl]methyl}amine]
200 to 201 | NC[C@H]1COc2cccc(-c3ccccc3Cl)c2O1 (as salt: fumarate) [Compound I-56, 1-[(2S)-8-(2-CHLOROPHENYL)-2,3-DIHYDRO-1,4-BENZODIOXIN-2-YL]METHANAMINE]
> 250 | Cc1ccccc1-c1cc(Cl)cc2c1OC(CN)O2 (stereo not shown) (as salt: hydrochloride) [Compound I-91, [6-Chloro-4-(2-methyl-phenyl)-benzo[1,3]dioxol-2-yl]-methylamine]
194 to 195 | CNCC1COc2cccc(-c3cccc(C)c3C)c2O1 (stereo not shown) (as salt: fumarate) [Compound I-25, {[8-(2,3-Dimethylphenyl)-2,3-dihydro-1,4-benzodioxin-2-yl]methyl}methylamine]
65 | NC[C@H]1COc2ccc(F)c(-c3ccc(Cl)cc3Cl)c2O1 (as salt: hydrochloride) [Compound I-75, ((2S)-7-Fluoro-8-(2,4-di-chloro-phenyl)-2,3-dihydrobenzo[b][1,4]dioxin-2-yl) methanamine]
227 to 229 | NCC1Oc2cc(F)cc(-c3ccccc3)c2O1 (stereo not shown) (as salt: hydrochloride) [Compound I-77, 1-(6-Fluoro-4-phenyl-1,3-benzodioxol-2-yl)methanamine]
267 to 270 | NCC1Oc2cc(F)cc(-c3cccc(Cl)c3)c2O1 (stereo not shown) (as salt: hydrochloride) [Compound I-78, 1-[4-(3-Chlorophenyl)-6-fluoro-1,3-benzodioxol-2-yl]methanamine]
208 to 210 | NC[C@H]1COc2ccc(F)c(-c3ccccc3Cl)c2O1 (as salt: hydrochloride) [Compound I-71, (2S)-[8-(2-Chloro-phenyl)-7-fluoro-2,3-dihydro-benzo[1,4]dioxin-2-yl]-methylamine]
182 to 183 | CCNCC1Oc2cc(F)cc(-c3ccccc3Cl)c2O1 (stereo not shown) (as salt: hydrochloride) [Compound I-88, N-{[4-(2-Chlorophenyl)-6-fluoro-1,3-benzodioxol-2-yl]methyl}ethanamine]
204 to 205 | Clc1ccc(-c2cccc3c2OC(CNC2CCC2)CO3)c(Cl)c1 (stereo not shown) (as salt: fumarate) [Compound I-45, N-{[8-(2,4-Dichlorophenyl)-2,3-dihydro-1,4-benzodioxin-2-yl]methyl}cyclobutanamine]
198 to 199 | COc1cccc(-c2cccc3c2OC(CN)CO3)c1OC (stereo not shown) (as salt: fumarate) [Compound I-9, {[8-(2,3-Dimethoxyphenyl)-2,3-dihydro-1,4-benzodioxin-2-yl]methyl}amine]
204 to 205 | Cc1cccc(-c2cccc3c2OC(CN)CO3)c1C (stereo not shown) (as salt: fumarate) [Compound I-10, {[8-(2,3-Dimethylphenyl)-2,3-dihydro-1,4-benzodioxin-2-yl]methyl}amine]
196 to 197 | CN(C)CC1COc2cccc(-c3ccccc3Cl)c2O1 (stereo not shown) (as salt: fumarate) [Compound I-38, {[8-(2-Chlorophenyl)-2,3-dihydro-1,4-benzodioxin-2-yl]methyl}dimethylamine]
186 to 187 | COc1ccccc1-c1cccc2c1OC(CN)CO2 (stereo not shown) (as salt: fumarate) [Compound I-5, {[8-(2-Methoxyphenyl)-2,3-dihydro-1,4-benzodioxin-2-yl]methyl}amine]
199 to 200 | Cc1ccc(C)c(-c2cccc3c2OC(CN)CO3)c1 (stereo not shown) (as salt: fumarate) [Compound I-11, {[8-(2,5-Dimethylphenyl)-2,3-dihydro-1,4-benzodioxin-2-yl]methyl}amine]
262 to 264 | NCC1Oc2cc(F)cc(-c3ccc(Cl)cc3)c2O1 (stereo not shown) (as salt: hydrochloride) [Compound I-79, 1-[4-(4-Chloro-phenyl)-6-fluoro-1,3-benzodioxol-2-yl]methanamine]
110 to 113 | C[C@]1(CN)COc2cccc(-c3cccc(Cl)c3)c2O1 (as salt: fumarate) [Compound I-50, {[(2S)-8-(3-Chlorophenyl)-2-methyl-2,3-dihydro-1,4-benzodioxin-2-yl]methyl}amine]
174 to 175 | CNCC1COc2cccc(-c3ccccc3Cl)c2O1 (stereo not shown) (as salt: fumarate) [Compound I-21, {[8-(2-Chlorophenyl)-2,3-dihydro-1,4-benzodioxin-2-yl]methyl}methylamine]
234 to 235 | NCC1Oc2cc(F)cc(-c3ccccc3F)c2O1 (stereo not shown) (as salt: hydrochloride) [Compound I-83, 1-[4-(2-Fluoro-phenyl)-6-fluoro-1,3-benzodioxol-2-yl]methanamine]
